Test results as given in US11401255B2, “Small molecule activators of Parkin enzyme function” (Mayo Foundation for Medical Education and Research, priority 2016, dated 2022).
Structures can show the parent of a compound that is named as a salt. Where two headings read alike, the source gives them in different places.

Assays:
FLAG-Parkin C431S = FLAG-Parkin C431S (Homo sapiens (Human), UniProt O60260, C431S); assay: Ub-charging of FLAG-Parkin C431S (western blot); format: cell-based; details: 1 μM, 2 h before 3.5 μM CCCP (FIG. 21)
Procedure: Another measure of Parkin activation is Ub charging of Parkin. Parkin receives Ub from an E2 enzyme to transfer it to a substrate protein. The Ub is bound by Parkin C431 in an unstable thioester bond. A serine substitution of this amino acid (C431S) leads to a stable oxyester bond. The bound Ub can then be visualized as a band shift in Western blot experiments. HeLa 3×FLAG-Parkin C431S cells were seeded in 12-well plates and allowed to attach overnight. Cells were treated with 5 μM (top panels) or 1 μM (bottom panels) of Compounds 1, 2, 3, 4, and 31 2 h before adding CCCP for another 2 h. 10 μM CCCP was added to positive control (PC) wells whereas all other samples received a low dose concentration of 3.5 μM. Cells were harvested in boiling hot SDS lysis buffer and protein concentration was determined by BCA. Samples were split and left either untreated or were treated with NaOH as indicated. Samples were run on an 8-16% Tris-Glycine gel, blotted onto membranes and probed with antibodies against Flag and pS65-Ub. GAPDH served as a loading control. Band shift indicates Parkin binding to Ubiquitin, which is cleavable with NaOH.
Cells were harvested in RIPA buffer or NP-40 lysis buffer containing protease and phosphatase inhibitors (Complete and PhosStop, Roche Applied Science) with the exception of Parkin Ub charging experiments where preheated (95° C.) SDS lysis buffer (50 mM Tris pH 7.6, 150 mM NaCl, 1% SDS) was used. Concentration of cell lysates was determined with bicinchoninic acid (Pierce Biotechnology). For Parkin Ub charging experiments, aliquots of lysates were treated with […] for 1 h at 37° C. pH was neutralized with equinormal HCl.
Protein was subjected to SDS-PAGE using 4-20% or 8-16% Tris-Glycine gels (Invitrogen) and transferred onto polyvinylidene fluoride (PVDF) (Millipore). Membranes were incubated with primary antibodies overnight at 4° C. followed by HRP-conjugated secondary antibodies (1:10,000; Jackson ImmunoResearch Laboratories). Primary antibodies used: beta III tubulin (rabbit, 1:1000, CST, #5568, CST), FLAG (mouse, 1:250,000, Sigma, F3165), GAPDH (mouse, 1:100,000-500,000, Meridian Life science, H86504M), GST (1:10,000, Sigma, G7781), MFN1 (mouse, 1:5,000, Abcam, ab57602), MFN2 (mouse, 1:5,000, Abcam, ab56889), Parkin (mouse, 1:2,000, Cell Signaling, #4211), pSer65-Ub (rabbit, 1:15,000, in-house (Fiesel et al., EMBO Reports (2015) 16:1114-30; Fiesel et al., (2015) Autophagy 11:2125-2126)), TOM70 (rabbit, 1:5,000, Proteintech, 14528-1-AP), UBE2L3 (rabbit, 1:10,000, ProteinTech, 14415-1-AP), VDAC1 (mouse, 1:5,000, Abcam, ab14734), vinculin (mouse, 1:100,000, Sigma, V9131).
HeLa 3×FLAG-Parkin C431S cells were seeded in 6-well plates and allowed to attach overnight. Cells were treated with […] of compounds 5, 21-28, 32, 33, or 43-46 2 h before adding CCCP for another 2 h. 10 VM CCCP was added to positive control (PC) wells, 3.5 μM CCCP to compound (+) and negative control (NC) wells. […] Cells were harvested in boiling hot SDS lysis buffer and protein concentration was determined by BCA. Samples were split and left either untreated or were treated with NaOH as indicated. Samples were run on an 8-16% Tris-Glycine gel, blotted onto membranes and probed with antibodies against Flag. Vinculin served as a loading control. Band shift indicates Parkin binding to Ubiquitin, which is cleavable with NaOH (FIG. 21).

Parkin = Parkin (Homo sapiens (Human), UniProt O60260); assay: Primary HCI assay of EGFP-Parkin translocation to mitochondria; format: cell-based; details: primary assay screen, Parkin translocation to mitochondria
Procedure: GFP-Parkin is localized throughout the cell in unstressed cells but translocates to mitochondria when the mitochondrial membrane potential is compromised and Parkin is activated. After automated image acquisition of fixed cells, regions of interest of each cell were defined with the analysis software. […] To quantify the relocalization of GFP-Parkin to mitochondria, the ratio of the GFP intensity in the cytoplasm and the nucleus was calculated. Under non-stressed condition, this ratio is about 1. FIG. 1B is a bar graph showing the results of the assay with a Z factor (Z′) of 0.5-0.8, which indicates its robustness and usefulness as a screening assay. Validation of the assay has been performed by using PINK1 siRNA.
FIGS. 2A-2C show a primary HCI assay with CCCP titration. FIG. 2A is a graphic description of the primary HCI assay of EGFP-Parkin translocation. HeLa cells stably expressing GFP-Parkin were seeded with 1350 cells per well in 384-well plates (25 μL per well). Cells were allowed to attach overnight before drug was added 2× concentrated in a volume of 25 μL in triplicates. After 2 h, 50 μL of a 2× low-dose CCCP (yielding a final concentration of 3.5 μM CCCP) was added to all wells that contained test compounds and for the negative control. For positive control wells, CCCP was added in a final concentration of 10 μM. After 2 h incubation with CCCP, cells were fixed and labeled with Hoechst for at least 1 h before cells were imaged. […] Values were being normalized to negative and positive control values and plotted as % activity. Z′ was calculated for quality control. Positive controls were indicated in green, negative control wells in red. Drugs that lead to more than 50% activity are considered positive (blue).
Functional testing of compounds was performed using an established primary HCI assay for Parkin translocation, which correlates well with enzymatic activation (Fiesel et al., J. Cell Science (2014) 127:3488-3504; Fiesel et al., Human Mutation (2015) 36:774-786). In brief, 1400 HeLa cells stably expressing EGFP-Parkin were seeded into optical 384-well plates (Greiner BioOne) in 25 μL media and allowed to adhere for 40 h. Compounds 1, 2, 3, 4, and 31 were added to the plate as 2× concentrated stocks. Control wells were treated with equal volume of DMSO in media. After 2 h, unless otherwise stated, CCCP was added as 2× concentrated stock with a final assay concentration of 10 μM for PC wells and 3.5 μM for test and NC wells. This low dose of CCCP was experimentally determined by a dose response curve of CCCP to result in no Parkin translocation (FIG. 13). After another 2 h, cells were fixed in 4% paraformaldehyde for 10 min and stained with Hoechst 33342 (1:5000, Invitrogen) before plates were imaged and analyzed.
Image acquisition was performed on a BD Pathway 855 with the Attovision V1.6 software (BD Biosciences). Wells were imaged with a 20× objective using a 2×2 montage with laser autofocus. EGFP exposure time was 0.0175 sec, Hoechst 0.0015 sec. Raw images were not processed and directly analyzed using a build-in ‘RING—2 output’ algorithm. Values were exported and normalized using JMP 11 software and transferred to GraphPad Prism 7 for quality control, graphing and curve fitting for DRCs with a variable slope using four parameters. […] Values were normalized to both PC and NC values from 24 wells each per plate and the Z′ score was calculated. Plates with Z′<0.5 were repeated.

[1] = Caco-2 A-B permeability assay; format: in vitro ADME; details: human, Caco-2, pH 7.4, A-B
Procedure: (§1) Caco-2 cells were cultivated in 75 cm^2 flasks to 80-90% of confluence according to the ATCC and Millipore recommendations (Millipore protocol note PC1060EN00P) in a humidified atmosphere at 37° C. and 5% CO2. Cells were detached with Trypsin/EDTA solution and re-suspended in the cell culture medium to a final concentration of 2×10^5 cells/mL. 500 μL of the cell suspension was added to each well of an HTS 24-multiwell insert system and 35 mL of prewarmed complete medium was added to the feeder tray. Caco-2 cells were incubated in the multiwell insert system for 10 days before the transport experiments. The medium in the filter plate and feeder tray was changed every other day. After 10 days of cell growth, the integrity of the monolayer was verified by measuring the transepithelial electrical resistance (TEER) for every well using the Millicell-ERS system ohm meter. […] The 24-well insert plate was removed from its feeder plate and placed in a new sterile 24-well transport analysis plate. The medium was aspirated and inserts washed with PBS.
(§2) To determine the rate of drug transport in apical (A) to basolateral (B) direction, 300 μL of the test compound solution in buffer (HBSS, 5.6 mM glucose, 10 mM HEPES, pH=7.4) was added into the filter wells and 1000 μL of the same buffer was added to wells in the transport analysis plate. The plates were incubated for 90 min. at 37° C. with shaking at 50 rpm. 75 μL aliquots were taken from the apical and basolateral compartment for LC-MS/MS analysis. All samples for LC-MS/MS analysis were extracted by acetonitrile (×2 volume) followed by protein sedimentation by centrifuging at 10000 rpm for 10 minutes. Supernatants were analyzed using the HPLC system coupled with a tandem mass spectrometer.
(§3) The apparent permeability (Papp) was calculated for the Caco-2 permeability assay using the following equation: Papp=(VA/((Area)×(Time))×([drug]acc/[drug]initial,d), where: […]

Caco-2 cells = assay: Caco-2 A-B permeability assay; format: in vitro ADME; details: A-B, 90 min, pH=7.4; hydrochloride
Procedure: as §1, §2, §3

CYP 2D6 = CYP 2D6 (Homo sapiens (Human), UniProt P10635); assay: P450-Glo CYP450 inhibition, CYP 2D6
Procedure: CYP450 inhibition profiling provides valuable information regarding any possible drug-drug interactions for a test compound.
All experiments were performed using P450-Glo™ Assay Systems (Promega) in accordance with the manufacturer's protocols. The P450-Glo™ Assays provide a luminescent readout-based method for measuring cytochrome P450 activity. A conventional cytochrome P450 reaction was performed by incubating the cytochrome P450 and a luminogenic cytochrome P450 substrate. The substrates in the P450-Glo™ assays are derivatives of beetle luciferin. The derivatives themselves are not substrates for luciferase but are converted by cytochrome P450s to luciferin, which in turn reacts with luciferase to produce light. The amount of light produced was directly proportional to cytochrome P450 activity. All test points were performed in quadruplicates. Control membranes (without CYPs) represented the Negative control (baseline).
The following reference compounds were used to assess CYP inhibition: […]

CYP 2D6, sequence (P10635 whole entry): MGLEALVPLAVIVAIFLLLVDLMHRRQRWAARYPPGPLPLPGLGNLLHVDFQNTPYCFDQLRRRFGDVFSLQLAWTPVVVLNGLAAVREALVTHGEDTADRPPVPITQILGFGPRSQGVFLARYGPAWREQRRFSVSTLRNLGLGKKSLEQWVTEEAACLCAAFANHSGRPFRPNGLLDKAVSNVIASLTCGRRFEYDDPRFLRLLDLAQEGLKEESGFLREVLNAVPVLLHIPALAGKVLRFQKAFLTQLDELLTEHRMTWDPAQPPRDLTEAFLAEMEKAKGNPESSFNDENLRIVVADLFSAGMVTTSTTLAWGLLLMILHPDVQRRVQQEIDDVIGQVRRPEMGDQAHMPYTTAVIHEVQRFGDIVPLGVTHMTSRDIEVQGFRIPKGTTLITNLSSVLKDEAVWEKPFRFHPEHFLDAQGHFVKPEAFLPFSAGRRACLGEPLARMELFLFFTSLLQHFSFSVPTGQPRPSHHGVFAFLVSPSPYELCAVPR

Row | SMILES | Ub-charging of FLAG-Parkin C431S (WB) (FLAG-Parkin C431S) | EC50 (Parkin) [nM] | further results
1 | Cc1nc(NC(=O)Cn2cnc3c2CCCC3)ccc1-c1ccccc1 [Compound 5] | enhanced Ub-charging | 63 | 
2 | c1ccc(CN2CCCN(c3ncnc4c3CCCCC4)CC2)cc1 [Compound 32] | enhanced Ub-charging | 36 | 
3 | c1ccc(CN2CCCN(c3ncnc4c3CCCC4)CC2)cc1 [Compound 33] | enhanced Ub-charging | 111 | 
4 | CC(C)NCC(O)COc1cccc2ccccc12 (stereo not shown) [Propranolol, propranolol hydrochloride, reference compound] |  |  | Papp at 90 min ([1]; read-out: Permeability (individual replicates 1, 2)): 23 ×10⁻⁶ cm/s; Papp at 90 min ([1]; read-out: Permeability Mean): 21.8 ×10⁻⁶ cm/s; Permeability (individual replicates 1, 2) (Caco-2 cells): 20.6 10^−6 cm/s
5 | C=C[C@H]1C[N@@]2CC[C@H]1C[C@@H]2[C@@H](O)c1ccnc2ccc(OC)cc12 [quinidine, reference compound] |  |  | inhibition at 1 µM (CYP 2D6): 88.4%
